Results as given in US9073943B2, “Antiviral compounds with a dibenzooxaheterocycle moiety” (Lupin Limited, priority 2012, dated 2015).

Key:
[1] = tested on: Huh7.5/Con1/SG-Neo(I)hRluc2aUb cell line persistently expressing a bicistronic genotype 1b replicon; assay: HCV replicon assay, genotype 1b (Renilla luciferase readout); assay type: cell-based; details: Hepatitis C virus, genotype 1b replicon in Huh 7.5 cells, 72 h, read-out: Gt1b IC50
Description: (§1) Anti-viral activity of the compounds of the invention was monitored using an HCV replicon assay. The Huh7.5/Con1/SG-Neo(I)hRluc2aUb cell line persistently expressing a bicistronic genotype 1b replicon in Huh 7.5 cells and the Huh7.5/J6/JFH1/EMCVIRES/hRlucNeo cell line expressing a bicistronic genotype 2a replicon in Huh 7.5 cells were obtained from Apath LLC. These cell lines were used to test inhibition of replicon levels by test compound using Renilla luciferase enzyme activity readout as a measure of viral replication efficiency.
(§2) Briefly, 7000-7500 cells were seeded in 96 well black clear bottom plates and allowed to adhere overnight. The next day each compound was added in triplicate to the cells at the desired concentration with a final DMSO concentration of 0.5%. Cells in media alone and cells incubated without drug with 0.5% DMSO served as controls. The plates were incubated for 72 h at 37° C. prior to running the luciferase assay. Enzyme activity was measured using Renilla-Glo Luciferase Assay kit from Promega as per the manufacturer's instructions. The following equation was used to generate the percent inhibition value for each test concentration.
(§3) The IC50 value was determined using GraphPad Prism and the following equation: Y=Bottom+(Top−Bottom)/(1+10^((LogIC50−X)*Hill slope))
(§4) IC50 values/% inhibitions of compounds were determined 2-3 times in the replicon assays.

[2] = tested on: Huh7.5/J6/JFH1/EMCVIRES/hRlucNeo cell line expressing a bicistronic genotype 2a replicon; assay: HCV replicon assay, genotype 2a (Renilla luciferase readout); assay type: cell-based; details: Hepatitis C virus, genotype 2a replicon in Huh 7.5 cells, 72 h, read-out: Gt2a IC50
Description: as §1, §2, §3, §4

Structure (SMILES) | IC50 [1] [nM] | IC50 [2] [nM]
COC(=O)N[C@H](C(=O)N1CCC[C@H]1c1ncc(-c2ccc3c(c2)OCCCOc2cc(-c4[nH]c([C@@H]5CCCN5C(=O)[C@@H](NC(=O)OC)C(C)C)nc4Cl)ccc2-3)[nH]1)C(C)C [Compound 2, methyl ((S)-1-((S)-2-(5-(11-(2-((S)-1-((S)-2-(methoxycarbonyl)amino-3-methylbutanoyl)pyrrolidin-2-yl)-1H-imidazol-5-yl)-7,8-dihydro-6H-dibenzo[f,h][1,5]dioxonin-3-yl)-4-chloro-1H-imidazol-2-yl)pyrrolidin-1-yl)-3-methyl-1-oxobutan-2-yl)carbamate] | 0.051 | 0.053
COC(=O)N[C@H](C(=O)N1CCC[C@H]1c1nc(Cl)c(-c2ccc3c(c2)OCCCOc2cc(-c4[nH]c([C@@H]5CCCN5C(=O)[C@@H](NC(=O)OC)C(C)C)nc4Cl)ccc2-3)[nH]1)C(C)C [Compound 3, dimethyl ((2S,2′S)-((2S,2′S)-2,2′-(5,5′-(7,8-dihydro-6H-dibenzo[f,h][1,5]dioxonine-3,11-diyl)bis(4-chloro-1H-imidazole-5,2-diyl))bis(pyrrolidine-2,1-diyl))bis(3-methyl-1-oxobutane-2,1-diyl))dicarbamate] | 0.018 | 0.037
COC(=O)N[C@H](C(=O)N1CCC[C@H]1c1ncc(-c2ccc3c(c2)OCC(C)(C)COc2cc(-c4[nH]c([C@@H]5CCCN5C(=O)[C@@H](NC(=O)OC)C(C)C)nc4Cl)ccc2-3)[nH]1)C(C)C [Compound 6, methyl ((S)-1-((S)-2-(5-(11-(2-((S)-1-((S)-2-(methoxycarbonyl)amino-3-methylbutanoyl)pyrrolidin-2-yl)-4-chloro-1H-imidazol-5-yl)-7,7-dimethyl-7,8-dihydro-6H-dibenzo[f,h][1,5]dioxonin-3-yl)-1H-imidazol-2-yl)pyrrolidin-1-yl)-3-methyl-1-oxobutan-2-yl)carbamate] | 0.021 | 0.671
COC(=O)N[C@H](C(=O)N1CCC[C@H]1c1nc(Cl)c(-c2ccc3c(c2)OCC(C)(C)COc2cc(-c4[nH]c([C@@H]5CCCN5C(=O)[C@@H](NC(=O)OC)C(C)C)nc4Cl)ccc2-3)[nH]1)C(C)C [Compound 7, dimethyl ((2S,2′S)-((2S,2′S)-2,2′-(5,5′-(7,7-dimethyl-7,8-dihydro-6H-dibenzo[f,h][1,5]dioxonine-3,11-diyl)bis(4-chloro-1H-imidazole-5,2-diyl))bis(pyrrolidine-2,1-diyl))bis(3-methyl-1-oxobutane-2,1-diyl))dicarbamate] | 0.004 | 0.249
